Patent publication US20160045505A1, “COMPOUNDS AND COMPOSITIONS FOR THE TREATMENT OF PARASITIC DISEASES” (NOVARTIS AG, priority 2013, published 2016)
pEC50: −log10 of the molar value. Like-named read-outs stand apart in the source and are kept apart here.

Experiments:
[1] = tested on: Leishmania donovani axenic amastigote parasites; test: Leishmania donovani axenic amastigote proliferation assay (Cell TiterGlo luminescence, 2 day incubation); format: cell-based; conditions: Leishmania donovani, read-out: L. donovani amastigotes EC50
[2] = tested on: L. donovani HU3 strain in mouse peritoneal macrophages; test: Assay for proliferation of Leishmania parasites in infected mouse peritoneal macrophages (SybrGreen staining, high-content imaging, 5 days); format: cell-based, Leishmania donovani; conditions: Leishmania donovani, Peritoneal macrophage, L. donovani in mouse peritoneal macrophages, read-out: L. donovani Macrophage EC50
[3] = tested on: Trypanosoma brucei Lister 427 strain, bloodstream form; test: Assay for proliferation of kinetoplastid parasite Trypanosoma brucei (Cell Titer Glo, 48 hours); format: cell-based; conditions: Trypanosoma brucei; for pEC50: T. brucei Lister 427 bloodstream form, read-out: T. brucei EC50
Method in brief: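 Bloodstream-form T. brucei Lister 427 in HMI-9 medium was exposed to compound (DMSO vehicle) for 48 hours at 37° C, 5% CO2. Parasite growth was read as ATP by CellTiter-Glo luminescence, with EC50 calculated from percent inhibition.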

[4] = tested on: Trypanosoma cruzi amastigotes (Tulahuen strain expressing Lac-Z) cultured in 3T3 fibroblast cells; test: microbe, parasite or virus in culture; format: cell-based; conditions: Trypanosoma cruzi, TULAHUEN, Fibroblast, T. cruzi amastigotes in 3T3 fibroblast cells, read-out: T cruzi EC50
[5] = axenic amastigotes, inhibition of proliferation

Row | SMILES | pEC50 [1, 5] | pEC50 ([2]; inhibition of proliferation) | pEC50 ([3]; inhibition of proliferation) | pEC50 ([4]; inhibition of proliferation) | pEC50 ([1]; L. donovani axenic amastigotes) | pEC50 [2] | EC50 ([3]; read-out: T. brucei EC50 (μM)) | pEC50 [4] | pEC50 [3]
1 | Cc1nc(C)c(C(=O)Nc2cccc(-c3cn4cc(-c5ccccc5)cnc4n3)c2)o1 [Compound 336] | 7.13 | 6.77 | 7.07 | 7.35 | – | – | – | – | –
2 | Cc1cc(C(=O)Nc2ccc(F)c(-c3cn4cc(NC(=O)OC(C)C)cnc4n3)c2)[nH]n1 [Compound 79] | 5.14 | < 4.30 | 5.13 | < 4.70 | – | – | – | – | –
3 | O=C(Nc1ccc(Cl)c(-c2cn3cc(-c4ccccn4)cnc3n2)c1)N1CCCC1 [Compound 456, N-(4-chloro-3-(6-(pyridin-2-yl)imidazo[1,2-a]pyrimidin-2-yl)phenyl)pyrrolidine-1-carboxamide] | – | – | – | – | 7.38 | 6.66 | 0.054 µM | 7.40 | –
4 | O=C(Nc1cnc2nc(-c3cc(NC(=O)N4CCCC4)ccc3F)cn2c1)C1CC1 [Compound 134] | 6.57 | 5.08 | 7.14 | 5.28 | – | – | – | – | –
5 | Cc1nc(C)c(C(=O)Nc2ccc(F)c(-c3cn4cc(NC(=O)c5ccccn5)cnc4n3)c2)o1 [Compound 119] | 7.25 | 6.54 | 7.07 | 7.11 | – | – | – | – | –
6 | Cc1nc(C)c(C(=O)Nc2ccc(F)c(-c3cn4cc(NC(=O)C5(C)CC5)cnc4n3)c2)o1 [Compound 115] | 7.14 | 7.03 | 7.27 | 6.39 | – | – | – | – | –
7 | Cc1nc(C)c(C(=O)Nc2ccc(F)c(-c3cn4cc(-c5ccc(F)nc5)cnc4n3)c2)o1 [Compound 436] | – | – | – | – | 7.11 | 5.77 | – | 7.30 | 7.14
8 | COCCOC(=O)Nc1cnc2nc(-c3cc(NC(=O)c4oc(C)nc4C)ccc3F)cn2c1 [Compound 304] | 6.27 | 4.98 | 5.85 | 5.62 | – | – | – | – | –
9 | Cc1nc(C)c(C(=O)Nc2ccc(F)c(-c3cn4cc(NC(=O)N5CCNC5=O)cnc4n3)c2)o1 [Compound 224] | 5.85 | < 4.30 | 6.12 | < 4.70 | – | – | – | – | –
10 | Cc1nc(C)c(C(=O)Nc2ccc(F)c(-c3cn4cc(-c5ccnn5C)cnc4n3)c2)o1 [Compound 393] | – | – | – | – | 6.83 | 6.74 | – | 6.83 | 6.96
11 | Cc1ncc(C(=O)Nc2cnc3nc(-c4cc(NC(=O)c5oc(C)nc5C)ccc4F)cn3c2)[nH]1 [Compound 190] | 6.11 | 5.07 | 6.61 | 4.91 | – | – | – | – | –
12 | CCn1ccnc1C(=O)Nc1cnc2nc(-c3cc(NC(=O)c4oc(C)nc4C)ccc3F)cn2c1 [Compound 117] | 6.90 | < 4.30 | 6.78 | < 4.70 | – | – | – | – | –
13 | CCc1cnc2nc(-c3cc(NC(=O)c4oc(C)nc4C)ccc3F)cn2c1 [Compound 423] | – | – | – | – | 7.05 | 6.66 | – | 7.32 | 7.46
14 | Cc1nc(C)c(C(=O)Nc2ccc(F)c(-c3cn4cc(NC(=O)C5CC5)cnc4n3)c2)o1 [Compound 248] | 6.72 | 6.39 | 6.77 | < 4.70 | – | – | – | – | –
15 | CC(C)OC(=O)Nc1cnc2nc(-c3cc(NC(=O)N4CCC(N(C)C)C4)ccc3Cl)cn2c1 (centres unmarked) [Compound 275] | < 4.60 | 4.77 | 4.46 | 4.93 | – | – | – | – | –
16 | CC(C)OC(=O)Nc1cnc2nc(-c3cc(NC(=O)N4CC[C@@H](F)C4)ccc3Cl)cn2c1 [Compound 267] | 6.31 | 5.74 | 6.94 | 5.72 | – | – | – | – | –
17 | O=C(Nc1ccc(F)c(-c2cn3cc(C4CC4)cnc3n2)c1)C1COCCO1 (centres unmarked) [Compound 600] | – | – | – | – | 5.83 | < 4.30 | – | 5.76 | 5.75
18 | Cc1ncc(C(=O)Nc2ccc(F)c(-c3cn4cc(C(F)F)cnc4n3)c2)o1 [Compound 209] | 7.06 | 6.50 | 6.77 | 6.89 | – | – | – | – | –

Row | SMILES | pEC50 [1, 5] | pEC50 ([2]; inhibition of proliferation) | pEC50 ([3]; inhibition of proliferation) | pEC50 ([4]; inhibition of proliferation) | pEC50 ([1]; L. donovani axenic amastigotes) | pEC50 [2] | EC50 ([3]; read-out: T. brucei EC50 (μM)) | pEC50 [4] | pEC50 [3]
19 | Cc1ncc(C(=O)Nc2ccc(F)c(-c3cn4cc(-c5cccnc5)cnc4n3)c2)o1 [Compound 398] | – | – | – | – | 6.73 | 6.37 | – | 6.24 | 6.50
20 | CC(C)OC(=O)Nc1ccc(F)c(-c2cn3cc(-c4ccccc4)cnc3n2)c1 [Compound 331] | 6.40 | 6.44 | 6.94 | 7.28 | – | – | – | – | –
21 | CC1=C(C(=O)Nc2cnc3nc(-c4cc(NC(=O)c5oc(C)nc5C)ccc4F)cn3c2)OCCO1 [Compound 116] | 7.02 | 6.32 | 6.82 | 5.47 | – | – | – | – | –
22 | Cc1nc(C)c(C(=O)Nc2ccc(F)c(-c3cn4cc(-c5ncccc5C)cnc4n3)c2)o1 [Compound 453] | – | – | – | – | 7.77 | 7.64 | – | 7.82 | 7.68
23 | O=C(Nc1ccc(F)c(-c2cn3cc(-c4cccnc4)cnc3n2)c1)N1CC(F)C1 [Compound 401] | – | – | – | – | 7.03 | 6.58 | – | 6.35 | 7.47
24 | Cc1nc(C)c(C(=O)Nc2ccc(F)c(-c3cn4cc(NC(=O)c5ccc(OCCN6CCN(C)CC6)cc5)cnc4n3)c2)o1 [Compound 175] | < 4.60 | 4.90 | 5.35 | < 4.70 | – | – | – | – | –
25 | Cc1nc(C)c(C(=O)Nc2ccc(F)c(-c3cn4cc(NC(=O)[C@H]5NCC[C@@H]5O)cnc4n3)c2)o1 [Compound 160] | < 4.60 | < 4.30 | 4.54 | < 4.70 | – | – | – | – | –
26 | Cc1ncc(C(=O)Nc2ccc(Cl)c(-c3cn4cc(NC(=O)OC(C)C)cnc4n3)c2)o1 [Compound 47] | 7.11 | 6.66 | 6.89 | 6.35 | – | – | – | – | –
27 | O=C(Nc1ccc(F)c(-c2cn3cc(-c4cccnc4)cnc3n2)c1)N1CCC1 [Compound 405] | – | – | – | – | 7.03 | 6.44 | – | 6.57 | 7.89
28 | Cc1nc(C)c(C(=O)Nc2ccc(F)c(-c3cn4cc(C(C)C)cnc4n3)c2)o1 [Compound 412] | – | – | – | – | 7.34 | 6.87 | – | 7.32 | 7.40
29 | Cc1nc(C)c(C(=O)Nc2ccc(F)c(-c3cn4cc(NC(=O)C5CN(C(=O)OC(C)(C)C)CCCO5)cnc4n3)c2)o1 (centres unmarked) [Compound 173] | 6.45 | 6.24 | 6.83 | 6.39 | – | – | – | – | –
30 | CN(C)C(=O)Nc1ccc(F)c(-c2cn3cc(F)cnc3n2)c1 [Compound 230] | 5.56 | 4.93 | 6.49 | 5.88 | – | – | – | – | –
31 | CC1(C(=O)Nc2cnc3nc(-c4cc(NC(=O)N5CCCC5)ccc4F)cn3c2)CCCO1 (centres unmarked) [Compound 127] | 6.25 | 5.67 | 7.13 | 5.70 | – | – | – | – | –
32 | CC(C)OC(=O)Nc1cnc2nc(-c3cc(NC(=O)N4CCNC4=O)ccc3Cl)cn2c1 [Compound 217] | < 4.60 | < 4.30 | < 4.30 | 5.15 | – | – | – | – | –
33 | Cc1nc(C)c(C(=O)Nc2ccc(F)c(-c3cn4cc(-c5cscn5)cnc4n3)c2)o1 [Compound 374] | – | – | – | – | 7.40 | 7.37 | – | 7.39 | 6.37
34 | Cc1nc(C)c(C(=O)Nc2ccc(F)c(-c3cn4cc(NC5=NCC(C(F)(F)F)O5)cnc4n3)c2)o1 (centres unmarked) [Compound 508] | – | – | – | – | 5.77 | 5.08 | – | 4.94 | 5.36
35 | CCN(C)C(=O)Nc1ccc(F)c(-c2cn3cc(-c4ccccn4)cnc3n2)c1 [Compound 381] | – | – | – | – | 6.41 | 5.84 | – | 6.35 | 6.32
